ChEMBL document CHEMBL1201862, “PubChem BioAssay data set” (2004)
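Grown in 96-well plates, cells were treated for 48 hours with each compound at five concentrations. Insufficient inhibition: endpoint recorded as highest concentration tested. Here, GI50 denotes the concentration required for 50% inhibition of growth.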 The source made the active and inactive calls. Rule as the data show it: active = GI50 up to about 1.1 µM and inactive = higher.

Assays:
Assay in all cases: growth of human tumour cells (NCI), 48 h
786-0 = system: 786-0
A498 = system: A498
A549 = system: A549
ACHN = system: ACHN
CAKI-1 = system: CAKI-1
CCRF-CEM = system: CCRF-CEM
COLO 205 = system: COLO 205
DU-145 = system: DU-145
EKVX = system: EKVX
HCC 2998 = system: HCC 2998
HCT-116 = system: HCT-116
HCT-15 = system: HCT-15
HL-60 = system: HL-60
HOP-62 = system: HOP-62
HOP-92 = system: HOP-92
HT-29 = system: HT-29
Hs-578T = system: Hs-578T
IGROV-1 = system: IGROV-1
K562 = system: K562
KM12 = system: KM12
LOX IMVI = system: LOX IMVI
M14 = system: M14
MCF7 = system: MCF7
MDA-MB-231 = system: MDA-MB-231
MDA-MB-435 = system: MDA-MB-435
MDA-N = system: MDA-N
MOLT-4 = system: MOLT-4
Malme-3M = system: Malme-3M
NCI-H226 = system: NCI-H226
NCI-H23 = system: NCI-H23
NCI-H460 = system: NCI-H460
NCI-H522 = system: NCI-H522
NCI/ADR-RES = system: NCI/ADR-RES
OVCAR-3 = system: OVCAR-3
OVCAR-4 = system: OVCAR-4
OVCAR-5 = system: OVCAR-5
OVCAR-8 = system: OVCAR-8
PC-3 = system: PC-3
RPMI-8226 = system: RPMI-8226
RXF 393 = system: RXF 393
SF-268 = system: SF-268
SF-295 = system: SF-295
SF-539 = system: SF-539
SK-MEL-28 = system: SK-MEL-28
SK-MEL-2 = system: SK-MEL-2
SK-MEL-5 = system: SK-MEL-5
SK-OV-3 = system: SK-OV-3
SN12C = system: SN12C
SNB-19 = system: SNB-19
SNB-75 = system: SNB-75
SR = system: SR
SW-620 = system: SW-620
T47D = system: T47D
TK-10 = system: TK-10
U-251 = system: U-251
UACC-257 = system: UACC-257
UACC-62 = system: UACC-62
UO-31 = system: UO-31
BT-549 = system: BT-549

Measured: GI50

COCC(/N=C\N1CCCc2ccccc2[C@@H]1CCCCl)C(C)(C)C (stereo partly specified)
inactive: 786-0 7.96 µM | A498 13.2 µM | A549 13.4 µM | ACHN 16.9 µM | CAKI-1 1.58 µM | DU-145 > 100 µM | EKVX 17.5 µM | HCC 2998 13.3 µM | HCT-116 1.23 µM | HOP-62 15.3 µM | HOP-92 7.19 µM | HT-29 1.54 µM | KM12 4.24 µM | LOX IMVI 8.41 µM | M14 4.55 µM | MDA-MB-231 3.49 µM | MDA-MB-435 11.7 µM | MDA-N 33.8 µM | MOLT-4 1.71 µM | NCI-H226 5.28 µM | NCI-H460 35.7 µM | OVCAR-4 1.97 µM | OVCAR-5 13.6 µM | OVCAR-8 15.5 µM | RPMI-8226 2.67 µM | RXF 393 13.1 µM | SF-268 > 100 µM | SF-295 17.2 µM | SF-539 12.1 µM | SK-MEL-28 > 100 µM | SK-MEL-2 17.1 µM | SK-MEL-5 1.31 µM | SK-OV-3 14.6 µM | SN12C 17.1 µM | SNB-19 18.7 µM | SNB-75 3.01 µM | SR 2.05 µM | SW-620 13 µM | T47D 21.2 µM | TK-10 9.93 µM | U-251 6.89 µM | UACC-62 10.3 µM | UO-31 12.2 µM
active: CCRF-CEM 0.444 µM | COLO 205 0.586 µM | HL-60 0.619 µM | Hs-578T 0.0184 µM | IGROV-1 0.353 µM | K562 0.512 µM | MCF7 0.351 µM | Malme-3M 0.332 µM | NCI-H23 0.421 µM | NCI-H522 0.557 µM | NCI/ADR-RES 0.392 µM | OVCAR-3 0.209 µM | PC-3 0.482 µM | UACC-257 0.798 µM
41.9 µM: HCT-15

COc1ccccc1C1(C)SCc2nc3ccccc3n21 (stereo unspecified)
inactive: BT-549 > 10 µM | CCRF-CEM > 10 µM | DU-145 > 10 µM | HL-60 > 10 µM | HOP-92 > 10 µM | K562 > 10 µM | KM12 > 10 µM | LOX IMVI > 10 µM | M14 > 10 µM | MCF7 > 10 µM | MDA-MB-435 > 10 µM | MDA-N > 10 µM | MOLT-4 > 10 µM | Malme-3M > 10 µM | NCI-H226 > 10 µM | NCI-H23 > 10 µM | NCI-H522 > 10 µM | NCI/ADR-RES > 10 µM | OVCAR-3 > 10 µM | OVCAR-4 > 10 µM | OVCAR-5 > 10 µM | PC-3 > 10 µM | SK-MEL-2 > 10 µM | SN12C > 10 µM | SNB-19 > 10 µM | SR > 10 µM | SW-620 > 10 µM | TK-10 > 10 µM | U-251 > 10 µM | UO-31 > 10 µM
> 10 µM: HCT-15

COC(=O)c1cc2ccc(O)c(O)c2cn1
20.3 µM: HCT-15
inactive: 786-0 2.7 µM | A498 > 10 µM | A549 23.6 µM | ACHN 19.1 µM | BT-549 > 10 µM | CAKI-1 13 µM | CCRF-CEM 1.92 µM | COLO 205 18.9 µM | DU-145 67.8 µM | EKVX 21.4 µM | HCC 2998 > 10 µM | HCT-116 15.7 µM | HL-60 3.36 µM | HOP-62 20.6 µM | HOP-92 12.6 µM | HT-29 > 10 µM | IGROV-1 17.5 µM | K562 2.42 µM | KM12 18.1 µM | LOX IMVI 1.96 µM | M14 18.5 µM | MCF7 3.56 µM | MDA-MB-231 10.9 µM | MDA-MB-435 1.73 µM | MDA-N 1.52 µM | MOLT-4 3.44 µM | Malme-3M 14.4 µM | NCI-H226 18.2 µM | NCI-H23 15.7 µM | NCI-H460 19 µM | NCI-H522 21.6 µM | NCI/ADR-RES 7.59 µM | OVCAR-3 17.1 µM | OVCAR-4 10.1 µM | OVCAR-5 19.5 µM | OVCAR-8 13.9 µM | PC-3 24.9 µM | RPMI-8226 17.1 µM | RXF 393 18 µM | SF-268 17.1 µM | SF-295 18.2 µM | SF-539 18.7 µM | SK-MEL-28 20.4 µM | SK-MEL-2 18.1 µM | SK-MEL-5 14.2 µM | SK-OV-3 27.5 µM | SN12C 9.1 µM | SNB-19 > 10 µM | SNB-75 21.5 µM | SR 4.25 µM | SW-620 16.6 µM | T47D > 10 µM | TK-10 20 µM | U-251 8.55 µM | UACC-257 15.4 µM | UACC-62 2.41 µM | UO-31 18.3 µM

C/C(=N\Nc1nc2ccccc2o1)c1cc(C)ncn1
0.043 µM: HCT-15
inactive: A498 > 100 µM | HCC 2998 11 µM | MDA-N 2.42 µM | RXF 393 1.34 µM | SK-MEL-28 4 µM | SK-MEL-2 1.38 µM
active: 786-0 < 0.0275 µM | A549 0.0957 µM | ACHN < 0.0189 µM | BT-549 0.305 µM | CAKI-1 0.0129 µM | CCRF-CEM < 0.01 µM | COLO 205 < 0.01 µM | DU-145 0.171 µM | EKVX < 0.0153 µM | HCT-116 < 0.0191 µM | HL-60 < 0.01 µM | HOP-62 0.11 µM | HT-29 < 0.01 µM | Hs-578T 0.231 µM | IGROV-1 0.0275 µM | K562 0.0356 µM | KM12 0.0851 µM | M14 < 0.0206 µM | MCF7 0.0212 µM | MDA-MB-231 < 0.0203 µM | MDA-MB-435 0.319 µM | MOLT-4 < 0.01 µM | Malme-3M 0.0327 µM | NCI-H226 < 0.0142 µM | NCI-H23 0.102 µM | NCI-H460 0.0455 µM | NCI-H522 < 0.01 µM | NCI/ADR-RES 0.0242 µM | OVCAR-3 < 0.0223 µM | OVCAR-4 0.136 µM | OVCAR-5 0.618 µM | OVCAR-8 0.0173 µM | PC-3 0.0383 µM | RPMI-8226 0.0306 µM | SF-268 0.031 µM | SF-295 0.0745 µM | SF-539 0.107 µM | SK-MEL-5 0.0381 µM | SK-OV-3 0.0675 µM | SN12C < 0.0205 µM | SNB-19 0.405 µM | SNB-75 0.151 µM | SR 0.124 µM | SW-620 < 0.0201 µM | U-251 0.128 µM | UACC-257 < 0.0211 µM | UACC-62 0.0867 µM | UO-31 0.019 µM

CC1CC[P+](c2ccccc2)(c2ccccc2)c2c1ccc1ccccc21 (stereo unspecified)
active: K562 0.942 µM | T47D 0.698 µM | UACC-257 0.607 µM
40.5 µM: HCT-15
inactive: A549 9.1 µM | ACHN 14 µM | BT-549 1.23 µM | CAKI-1 7.85 µM | CCRF-CEM 4.3 µM | HCC 2998 6.12 µM | HCT-116 2.67 µM | HL-60 2.51 µM | HOP-92 1.15 µM | HT-29 2.32 µM | Hs-578T 1.79 µM | KM12 3.13 µM | LOX IMVI 2.25 µM | M14 5.89 µM | MCF7 2.14 µM | MDA-MB-435 2.78 µM | MOLT-4 6.75 µM | NCI-H23 2.4 µM | NCI-H460 2.64 µM | NCI-H522 1.16 µM | OVCAR-4 12.6 µM | OVCAR-5 5.81 µM | OVCAR-8 2.44 µM | PC-3 1.51 µM | RXF 393 9.77 µM | SF-268 7.89 µM | SF-295 3.33 µM | SF-539 4.82 µM | SK-MEL-2 1.79 µM | SK-MEL-5 1.34 µM | SN12C 3.94 µM | SNB-19 4.07 µM | SNB-75 1.79 µM | UACC-62 4.13 µM | UO-31 27 µM
